Read-outs that look alike come from different tables or passages of the source.
Columns and labels:
[1] = test system: T. gondii RH strain (RH-Tub-eYFP) tachyzoites; assay: microbe, parasite or virus in culture; type: cell-based, Toxoplasma gondii; settings: 72 h; for percent parasite growth at 2 µg/mL: Toxoplasma gondii
[2] = test system: P. falciparum 3D7 parasites; assay: P. falciparum growth inhibition assay, 1-cycle (72 h treatment), SYBR DNA staining (library screen at 2 μg/mL and dose-response); type: cell-based, Plasmodium falciparum; settings: 72 h; for activity at 2 µg/mL: Plasmodium falciparum
[3] = test system: P. falciparum 3D7 parasites; assay: P. falciparum growth inhibition assay, 2-cycle (120 h treatment), delayed-death screen and dose-response; type: cell-based, Plasmodium falciparum; settings: 120 h; for activity at 2 µg/mL: Plasmodium falciparum
[4] = library screen at 2 μg/mL, % growth, replicate 1
[5] = library screen at 2 μg/mL, % growth, replicate 2
[6] = T. gondii, screen at 2 μg/mL, replicate 1, read-out: Tg_72h_%Growth_Rep1
[7] = T. gondii, screen at 2 μg/mL, replicate 2, read-out: Tg_72h_%Growth_Rep2
[8] = library screen at 2 μg/mL, % growth, replicate 1, read-out: Tg_72h_%Growth_Rep1
[9] = library screen at 2 μg/mL, % growth, replicate 2, read-out: Tg_72h_%Growth_Rep2
[10] = 3D7, library screen at 2 μg/mL, % growth, replicate 1, read-out: Pf_72h_%Growth_Rep1
[11] = 3D7, library screen at 2 μg/mL, % growth, replicate 2, read-out: Pf_72h_%Growth_Rep2
[12] = 3D7, library screen at 2 μg/mL, % growth, replicate 1, read-out: Pf_120h_%Growth_Rep1
[13] = 3D7, library screen at 2 μg/mL, % growth, replicate 2, read-out: Pf_120h_%Growth_Rep2

| SMILES | Tg_72h_%Growth_Rep1 [1, 4] | Tg_72h_%Growth_Rep2 [1, 5] | Pf_72h_%Growth_Rep1 [2, 4] | Pf_72h_%Growth_Rep2 [2, 5] | Pf_120h_%Growth_Rep1 [3, 4] | Pf_120h_%Growth_Rep2 [3, 5] | also measured |
| --- | --- | --- | --- | --- | --- | --- | --- |
| CC[C@H]1OC(=O)[C@H](C)[C@@H](O[C@H]2C[C@@](C)(OC)[C@@H](O)[C@H](C)O2)[C@H](C)[C@@H](O[C@@H]2O[C@H](C)C[C@H](N(C)C)[C@H]2O)[C@@]2(C)CC(C)=C(O2)[C@H](C)[C@@H](O)[C@]1(C)O [Erythromycin A enol ether] | 90.78% | 86.46% | 65.76% | 86.36% | 47.90% | 73.68% |  |
| CCC/C=C/C=C/C1C[C@@H](O)[C@@H](O)C(=O)[C@H]1C=O (stereo partly drawn) [Frequentin] | 198.87% | 96.89% | 84.65% | 84.20% | 99.31% | 94.53% |  |
| CC1(O)Cc2oc3cc(O)c(O)c(C(=O)O)c3c(=O)c2CO1 (stereo not drawn) [Fulvic acid] | 149.83% | 113.67% | 84.86% | 84.76% | 105.15% | 98.61% |  |
| CO[C@H]1[C@@H](O)[C@@H](C)O[C@H](O[C@H]2[C@H](Oc3cccc4c(O)c5c(=O)oc6ccc(C)c7c(=O)oc(c34)c5c67)O[C@H](C)[C@H](O)[C@@H]2O)[C@@H]1O [Chartreusin] |  |  |  |  |  |  | percent parasite growth at 2 µg/mL [1, 6]: 85.7%; percent parasite growth at 2 µg/mL [1, 7]: 97.4%; activity at 2 µg/mL ([2]; 3D7, 72 h, P. falciparum, screen at 2 μg/mL, replicate 1, read-out: Pf_72h_%Growth_Rep1): 101%; activity at 2 µg/mL ([2]; 3D7, 72 h, P. falciparum, screen at 2 μg/mL, replicate 2, read-out: Pf_72h_%Growth_Rep2): 88.7%; activity at 2 µg/mL ([3]; 3D7, 120 h, P. falciparum, screen at 2 μg/mL, replicate 1, read-out: Pf_120h_%Growth_Rep1): 144%; activity at 2 µg/mL ([3]; 3D7, 120 h, P. falciparum, screen at 2 μg/mL, replicate 2, read-out: Pf_120h_%Growth_Rep2): 96.8% |
| C=C(NC(=O)C(=C)NC(=O)c1ccc2c(n1)-c1coc(n1)C(=C)NC(=O)C(=C)NC(=O)c1nc(oc1C)C(=C)NC(=O)[C@H](C(C)(C)O)NC(=O)C(=C)NC(=O)c1nc(oc1C)/C(=C/C)NC(=O)[C@H]([C@@H](C)O)NC(=O)c1csc-2n1)C(N)=O [Berninamycin A] | 80.20% | 95.18% | 102.47% | 88.00% | 140.98% | 104.87% |  |
| CO[C@H]1C[C@@H]2CC[C@@H](C)[C@@](O)(O2)C(=O)C(=O)N2CCCC[C@H]2C(=O)O[C@H]([C@H](C)C[C@@H]2CC[C@H](n3cnnn3)[C@H](OC)C2)CC(=O)[C@H](C)/C=C(\C)[C@@H](O)[C@@H](OC)C(=O)[C@H](C)C[C@H](C)/C=C/C=C/C=C/1C [Zotarolimus] |  |  |  |  |  |  | percent parasite growth at 2 µg/mL [1, 6]: 120%; percent parasite growth at 2 µg/mL [1, 7]: 77.8%; activity at 2 µg/mL ([2]; 3D7, P. falciparum, screen at 2 μg/mL, replicate 1, read-out: Pf_72h_%Growth_Rep1): 75.7%; activity at 2 µg/mL ([2]; 3D7, P. falciparum, screen at 2 μg/mL, replicate 2, read-out: Pf_72h_%Growth_Rep2): 88.3%; activity at 2 µg/mL ([3]; 3D7, P. falciparum, screen at 2 μg/mL, replicate 1, read-out: Pf_120h_%Growth_Rep1): 97.5%; activity at 2 µg/mL ([3]; 3D7, P. falciparum, screen at 2 μg/mL, replicate 2, read-out: Pf_120h_%Growth_Rep2): 77.1% |
| CC[C@H](C)[C@H]1O[C@]2(C=C[C@@H]1C)C[C@@H]1C[C@@H](C/C=C(\C)[C@@H](O[C@H]3C[C@H](OC)[C@@H](O[C@H]4C[C@H](OC)[C@@H](O)[C@H](C)O4)[C@H](C)O3)[C@@H](C)/C=C/C=C3\CO[C@@H]4[C@H](O)C(C)=C[C@@H](C(=O)O1)[C@]34O)O2 [Avermectin B1a] |  |  |  |  |  |  | percent parasite growth at 2 µg/mL [1, 8]: 81.9%; percent parasite growth at 2 µg/mL [1, 9]: 76.2%; activity at 2 µg/mL [2, 10]: 3.24%; activity at 2 µg/mL [2, 11]: 3.85%; activity at 2 µg/mL [3, 12]: 3.33%; activity at 2 µg/mL [3, 13]: 5.47% |
| Cc1cc(O)c2c(c1)C(=O)c1cc(O)cc(O)c1C2=O [Emodin] |  |  |  |  |  |  | percent parasite growth at 2 µg/mL [1, 8]: 116%; percent parasite growth at 2 µg/mL [1, 9]: 87.4%; activity at 2 µg/mL [2, 10]: 87.3%; activity at 2 µg/mL [2, 11]: 86.6%; activity at 2 µg/mL [3, 12]: 85.9%; activity at 2 µg/mL [3, 13]: 114% |
